{"source": "patent US8192962B2", "about": "“Processes for detecting toxic substances” (Daikin Industries, Ltd., priority 2001, dated 2012)", "system": "Unknown protein yeast genes", "assay": "DNA chip mRNA expression in yeast, unknown protein yeast genes (Table 1)", "type": "cell-based, Saccharomyces cerevisiae S288C", "outline": "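Measured as treated-to-untreated fluorescence ratio on a full-genome yeast DNA chip. Cells (S288C, YPD, 25° C.) were exposed in log phase for two hours to one chemical, dosed to curb growth without killing.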", "data": [{"smiles": "N#Cc1c(Cl)c(Cl)c(Cl)c(C#N)c1Cl", "note": "[(9), 2,4,5,6-tetrachloro-1,3-benzenedicarbonitrile]", "values": [{"measurement": "The level of expressed mRNA in the presence of chemical substance/The level of expressed mRNA in the absence of chemical substance", "setting": "yeast gene YKL195W, incubated two hours with chemical substance", "result": 3.6}, {"measurement": "The level of expressed mRNA in the presence of chemical substance/The level of expressed mRNA in the absence of chemical substance", "setting": "yeast gene YKR018C", "result": 3.9}, {"measurement": "The level of expressed mRNA in the presence of chemical substance/The level of expressed mRNA in the absence of chemical substance", "setting": "yeast gene YKR046C", "result": 3.9}, {"measurement": "The level of expressed mRNA in the presence of chemical substance/The level of expressed mRNA in the absence of chemical substance", "setting": "yeast gene YKR091W, incubated two hours with chemical substance", "result": 1.0}, {"measurement": "The level of expressed mRNA in the presence of chemical substance/The level of expressed mRNA in the absence of chemical substance", "setting": "yeast gene YLR054C, incubated two hours with chemical substance", "result": 2.7}, {"measurement": "The level of expressed mRNA in the presence of chemical substance/The level of expressed mRNA in the absence of chemical substance", "setting": "yeast gene YLR149C, incubated two hours with chemical substance", "result": 6.2}, {"measurement": "The level of expressed mRNA in the presence of chemical substance/The level of expressed mRNA in the absence of chemical substance", "setting": "yeast gene YLR152C, incubated two hours with chemical substance", "result": 0.6}, {"measurement": "The level of expressed mRNA in the presence of chemical substance/The level of expressed mRNA in the absence of chemical substance", "setting": "yeast gene YLR161W", "result": 1.0}, {"measurement": "The level of expressed mRNA in the presence of chemical substance/The level of expressed mRNA in the absence of chemical substance", "setting": "yeast gene YLR177W", "result": 1.0}, {"measurement": "The level of expressed mRNA in the presence of chemical substance/The level of expressed mRNA in the absence of chemical substance", "setting": "yeast gene YLR194C, incubated two hours with chemical substance", "result": 0.9}, {"measurement": "The level of expressed mRNA in the presence of chemical substance/The level of expressed mRNA in the absence of chemical substance", "setting": "yeast gene YLR324W, incubated two hours with chemical substance", "result": 3.1}, {"measurement": "The level of expressed mRNA in the presence of chemical substance/The level of expressed mRNA in the absence of chemical substance", "setting": "yeast gene YLR338W", "result": 7.9}, {"measurement": "The level of expressed mRNA in the presence of chemical substance/The level of expressed mRNA in the absence of chemical substance", "setting": "yeast gene YLR346C", "result": 8.6}, {"measurement": "The level of expressed mRNA in the presence of chemical substance/The level of expressed mRNA in the absence of chemical substance", "setting": "yeast gene YLR350W, incubated two hours with chemical substance", "result": 0.6}, {"measurement": "The level of expressed mRNA in the presence of chemical substance/The level of expressed mRNA in the absence of chemical substance", "setting": "yeast gene YLR387C, incubated two hours with chemical substance", "result": 7.8}, {"measurement": "The level of expressed mRNA in the presence of chemical substance/The level of expressed mRNA in the absence of chemical substance", "setting": "yeast gene YLR460C", "result": 13.9}, {"measurement": "The level of expressed mRNA in the presence of chemical substance/The level of expressed mRNA in the absence of chemical substance", "setting": "yeast gene YML117W, incubated two hours with chemical substance", "result": 1.0}, {"measurement": "The level of expressed mRNA in the presence of chemical substance/The level of expressed mRNA in the absence of chemical substance", "setting": "yeast gene YMR009W, incubated two hours with chemical substance", "result": 3.4}, {"measurement": "The level of expressed mRNA in the presence of chemical substance/The level of expressed mRNA in the absence of chemical substance", "setting": "yeast gene YMR067C, incubated two hours with chemical substance", "result": 4.0}, {"measurement": "The level of expressed mRNA in the presence of chemical substance/The level of expressed mRNA in the absence of chemical substance", "setting": "yeast gene YMR090W", "result": 16.7}, {"measurement": "The level of expressed mRNA in the presence of chemical substance/The level of expressed mRNA in the absence of chemical substance", "setting": "yeast gene YMR097C, incubated two hours with chemical substance", "result": 2.1}, {"measurement": "The level of expressed mRNA in the presence of chemical substance/The level of expressed mRNA in the absence of chemical substance", "setting": "yeast gene YMR102C, incubated two hours with chemical substance", "result": 1.7}, {"measurement": "The level of expressed mRNA in the presence of chemical substance/The level of expressed mRNA in the absence of chemical substance", "setting": "yeast gene YMR107W, incubated two hours with chemical substance", "result": 6.0}, {"measurement": "The level of expressed mRNA in the presence of chemical substance/The level of expressed mRNA in the absence of chemical substance", "setting": "yeast gene YMR180C, incubated two hours with chemical substance", "result": 1.8}, {"measurement": "The level of expressed mRNA in the presence of chemical substance/The level of expressed mRNA in the absence of chemical substance", "setting": "yeast gene YMR184W, incubated two hours with chemical substance", "result": 2.1}, {"measurement": "The level of expressed mRNA in the presence of chemical substance/The level of expressed mRNA in the absence of chemical substance", "setting": "yeast gene YMR191W, incubated two hours with chemical substance", "result": 2.2}, {"measurement": "The level of expressed mRNA in the presence of chemical substance/The level of expressed mRNA in the absence of chemical substance", "setting": "yeast gene YMR251W", "result": 3.1}, {"measurement": "The level of expressed mRNA in the presence of chemical substance/The level of expressed mRNA in the absence of chemical substance", "setting": "yeast gene YMR295C, incubated two hours with chemical substance", "result": 1.0}, {"measurement": "The level of expressed mRNA in the presence of chemical substance/The level of expressed mRNA in the absence of chemical substance", "setting": "yeast gene YMR316W, incubated two hours with chemical substance", "result": 2.1}, {"measurement": "The level of expressed mRNA in the presence of chemical substance/The level of expressed mRNA in the absence of chemical substance", "setting": "yeast gene YNL044W, incubated two hours with chemical substance", "result": 0.8}, {"measurement": "The level of expressed mRNA in the presence of chemical substance/The level of expressed mRNA in the absence of chemical substance", "setting": "yeast gene YNL074C, incubated two hours with chemical substance", "result": 1.5}, {"measurement": "The level of expressed mRNA in the presence of chemical substance/The level of expressed mRNA in the absence of chemical substance", "setting": "yeast gene YNL092W, incubated two hours with chemical substance", "result": 2.3}, {"measurement": "The level of expressed mRNA in the presence of chemical substance/The level of expressed mRNA in the absence of chemical substance", "setting": "yeast gene YNL115C, incubated two hours with chemical substance", "result": 2.6}, {"measurement": "The level of expressed mRNA in the presence of chemical substance/The level of expressed mRNA in the absence of chemical substance", "setting": "yeast gene YNL156C, incubated two hours with chemical substance", "result": 2.4}, {"measurement": "The level of expressed mRNA in the presence of chemical substance/The level of expressed mRNA in the absence of chemical substance", "setting": "yeast gene YNL234W, incubated two hours with chemical substance", "result": 2.6}, {"measurement": "The level of expressed mRNA in the presence of chemical substance/The level of expressed mRNA in the absence of chemical substance", "setting": "yeast gene YNL281W, incubated two hours with chemical substance", "result": 2.8}, {"measurement": "The level of expressed mRNA in the presence of chemical substance/The level of expressed mRNA in the absence of chemical substance", "setting": "yeast gene YNL305C, incubated two hours with chemical substance", "result": 2.9}, {"measurement": "The level of expressed mRNA in the presence of chemical substance/The level of expressed mRNA in the absence of chemical substance", "setting": "yeast gene YNR068C, incubated two hours with chemical substance", "result": 6.7}, {"measurement": "The level of expressed mRNA in the presence of chemical substance/The level of expressed mRNA in the absence of chemical substance", "setting": "yeast gene YOL032W, incubated two hours with chemical substance", "result": 4.5}, {"measurement": "The level of expressed mRNA in the presence of chemical substance/The level of expressed mRNA in the absence of chemical substance", "setting": "yeast gene YOL036W, incubated two hours with chemical substance", "result": 3.1}, {"measurement": "The level of expressed mRNA in the presence of chemical substance/The level of expressed mRNA in the absence of chemical substance", "setting": "yeast gene YOL047C, incubated two hours with chemical substance", "result": 0.6}, {"measurement": "The level of expressed mRNA in the presence of chemical substance/The level of expressed mRNA in the absence of chemical substance", "setting": "yeast gene YOL071W, incubated two hours with chemical substance", "result": 4.4}, {"measurement": "The level of expressed mRNA in the presence of chemical substance/The level of expressed mRNA in the absence of chemical substance", "setting": "yeast gene YOL082W, incubated two hours with chemical substance", "result": 3.4}, {"measurement": "The level of expressed mRNA in the presence of chemical substance/The level of expressed mRNA in the absence of chemical substance", "setting": "yeast gene YOL083W, incubated two hours with chemical substance", "result": 2.7}, {"measurement": "The level of expressed mRNA in the presence of chemical substance/The level of expressed mRNA in the absence of chemical substance", "setting": "yeast gene YOL117W, incubated two hours with chemical substance", "result": 1.3}, {"measurement": "The level of expressed mRNA in the presence of chemical substance/The level of expressed mRNA in the absence of chemical substance", "setting": "yeast gene YOL131W, incubated two hours with chemical substance", "result": 8.4}, {"measurement": "The level of expressed mRNA in the presence of chemical substance/The level of expressed mRNA in the absence of chemical substance", "setting": "yeast gene YOL150C", "result": 10.8}, {"measurement": "The level of expressed mRNA in the presence of chemical substance/The level of expressed mRNA in the absence of chemical substance", "setting": "yeast gene YOL162W, incubated two hours with chemical substance", "result": 12.0}, {"measurement": "The level of expressed mRNA in the presence of chemical substance/The level of expressed mRNA in the absence of chemical substance", "setting": "yeast gene YOR019W, incubated two hours with chemical substance", "result": 3.5}, {"measurement": "The level of expressed mRNA in the presence of chemical substance/The level of expressed mRNA in the absence of chemical substance", "setting": "yeast gene YOR161C", "result": 1.0}, {"measurement": "The level of expressed mRNA in the presence of chemical substance/The level of expressed mRNA in the absence of chemical substance", "setting": "yeast gene YOR197W, incubated two hours with chemical substance", "result": 0.8}, {"measurement": "The level of expressed mRNA in the presence of chemical substance/The level of expressed mRNA in the absence of chemical substance", "setting": "yeast gene YPL087W, incubated two hours with chemical substance", "result": 1.0}, {"measurement": "The level of expressed mRNA in the presence of chemical substance/The level of expressed mRNA in the absence of chemical substance", "setting": "yeast gene YPL150W", "result": 3.1}, {"measurement": "The level of expressed mRNA in the presence of chemical substance/The level of expressed mRNA in the absence of chemical substance", "setting": "yeast gene YPL196W, incubated two hours with chemical substance", "result": 10.9}, {"measurement": "The level of expressed mRNA in the presence of chemical substance/The level of expressed mRNA in the absence of chemical substance", "setting": "yeast gene YPL206C, incubated two hours with chemical substance", "result": 1.7}, {"measurement": "The level of expressed mRNA in the presence of chemical substance/The level of expressed mRNA in the absence of chemical substance", "setting": "yeast gene YPL222W, incubated two hours with chemical substance", "result": 7.4}, {"measurement": "The level of expressed mRNA in the presence of chemical substance/The level of expressed mRNA in the absence of chemical substance", "setting": "yeast gene YPL225W", "result": 1.0}, {"measurement": "The level of expressed mRNA in the presence of chemical substance/The level of expressed mRNA in the absence of chemical substance", "setting": "yeast gene YPR023C, incubated two hours with chemical substance", "result": 4.4}, {"measurement": "The level of expressed mRNA in the presence of chemical substance/The level of expressed mRNA in the absence of chemical substance", "setting": "yeast gene YPR151C, incubated two hours with chemical substance", "result": 3.0}]}]}
